Laboratory results from patent publication US20250368678A1, “19-NOR-C3,3-DISUBSTITUTED C21-AZACYCLO-S[…] AND METHOD FOR USING SAME” (SHANDONG LUYE PHARMACEUTICAL CO., LTD., priority 2022, published 2025).
Like-named read-outs stand apart in the source and are kept apart here.

Tests used:
[1] = system: SD rats; assay: Loss of righting reflex in SD rats, intragastric administration; format: in vivo; conditions: for rate of loss of righting reflex: within 4 h
From the text: To determine the threshold for the loss of righting reflex in SD rats after intragastric administration of compound 41 in order to evaluate the sedative effect and therapeutic safety window of compound 41.
Male SD rats weighing 180-200 g, as experimental animals, were acclimatized for 7 days after arriving at the animal facility and were randomly divided into groups based on weight one day before experimentation. The rats were fasted overnight before experimentation but had access to water. Doses of compound 41 were designed in a 0.8-fold gradient, and the doses were set at 39 mg/kg, 31.25 mg/kg, 25 mg/kg, 20 mg/kg, and 16 mg/kg, with 10 rats in each group. Observations were made on the loss of righting reflex within 4 h of intragastrically administering the compound to the rats.

[2] = Pharmacokinetic study in CD-1 mice (plasma and brain); format: in vivo
Description: Male CD-1 mice weighing about 25 g were randomly divided into groups of 3.
The intravenous (IV) dose was 1 mg/kg, and the intragastric (IG) dose was 5 mg/kg. Animals were fasted for 12 h before administration, with free access to water, and were fed together 3 h post-administration. Blood samples of about 0.15 mL were collected at 5 min (intravenous), 15 min, 30 min, 1 h, 2 h, 4 h, 8 h, 12 h, and 24 h post-administration into heparinized EP tubes and centrifuged at 13,500 rpm for 10 min to separate the plasma. Mouse brain tissue samples were collected after cardiac perfusion at 30 min, 2 h, and 8 h. After pretreatment, the samples were analyzed by LC-MS/MS to determine the concentration of the test compound in the plasma and brain, and pharmacokinetic parameters were calculated.

[3] = male, mouse, IV 1 mg/kg, plasma
[4] = male, mouse, plasma, IV 1 mg/kg
[5] = male, mouse, plasma, po, IG 5 mg/kg
[6] = male, mouse, po, IG 5 mg/kg, plasma

In the case of `C[C@@]1(O)CC[C@H]2[C@H](CC[C@@H]3[C@@H]2CC[C@]2(C)[C@@H](C(=O)Cn4cnn(-c5cc(F)nc(F)c5)c4=O)CC[C@@H]32)C1` [Compound 41], the “rate of loss of righting reflex” value ([1]; 16 mg/kg intragastric, SD rats) is reported as 0%, the “rate of loss of righting reflex” value ([1]; 20 mg/kg intragastric, SD rats) is reported as 0% and the “rate of loss of righting reflex” value ([1]; 25 mg/kg intragastric, SD rats) is reported as 50%. For the same molecule, the “rate of loss of righting reflex” value ([1]; 31.25 mg/kg intragastric, SD rats) was 90%, the “rate of loss of righting reflex” value ([1]; 39 mg/kg intragastric, SD rats) was 100% and the “threshold for loss of righting reflex relative to effective dose for the antiepileptic convulsion effect” value ([1]; intragastric, 20 mg/kg vs 3.5 mg/kg, rats) was 5.7 times. The “therapeutic safety window (in words)” value ([1]; intragastric, SD rats) was “relatively wide”, the “threshold dose for the loss of righting reflex” value ([1]; intragastrically administered, SD rats) was 20 mg/kg and the “brain penetration capability (in words)” value ([2]; IG 5 mg/kg) was “strong”. The AUC(0-inf) [2, 3] was 4320 ng·h/mL, the AUC(0-t) [2, 3] was 3660 ng·h/mL and the C0 [2, 3] was 490 ng/mL. The concentration at 30 min ([2]; male, mouse, brain, oral, IG 5 mg/kg, 30 min, read-out: Brain concentration) was 847 ± 36 ng/g, the concentration at 2 h ([2]; male, mouse, brain, oral, IG 5 mg/kg, 2 h, read-out: Brain concentration) was 1920 ± 978 ng/g and the concentration at 8 h ([2]; male, mouse, brain, oral, IG 5 mg/kg, 8 h, read-out: Brain concentration) was 1590 ± 233 ng/g. The Kp at 30 min ([2]; male, mouse, brain/plasma, oral, IG 5 mg/kg, 30 min, read-out: Brain-to-blood ratio) was 0.9, the Kp at 2 h ([2]; male, mouse, brain/plasma, oral, IG 5 mg/kg, 2 h, read-out: Brain-to-blood ratio) was 1.5 and the Kp at 8 h ([2]; male, mouse, brain/plasma, oral, IG 5 mg/kg, 8 h, read-out: Brain-to-blood ratio) was 1.8. For the same molecule, the MRT last [2, 4] was 7.9 h, the half-life [2, 4] was 540 min and the bioavailability ([2]; male, mouse, plasma, oral, IG 5 mg/kg vs IV 1 mg/kg, read-out: F (absolute bioavailability)) was 109%. It also gave a concentration at 30 min ([2]; male, mouse, plasma, oral, IG 5 mg/kg, 30 min, read-out: Plasma concentration) of 936 ± 119 ng/mL, a concentration at 2 h ([2]; male, mouse, plasma, oral, IG 5 mg/kg, 2 h, read-out: Plasma concentration) of 1280 ± 345 ng/mL and a concentration at 8 h ([2]; male, mouse, plasma, oral, IG 5 mg/kg, 8 h, read-out: Plasma concentration) of 891 ± 72 ng/mL. It also gave an MRT last [2, 5] of 9.8 h, a Tmax [2, 5] of 1 h and a half-life [2, 5] of 990 min. It also gave an AUC(0-inf) [2, 6] of 31300 ng·h/mL, an AUC(0-t) [2, 6] of 20000 ng·h/mL and a Cmax [2, 6] of 1670 ng/mL.
